According to ChEMBL document CHEMBL1201862, “PubChem BioAssay data set” (2004):
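In this assay, cells in 96-well plates receive the compound at five concentrations for 48 hours. Endpoints are linearly interpolated between the surrounding concentrations. GI50: concentration for 50% inhibition of growth.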 Active and inactive are the calls of the source. Cut-off read from the data, not from the text of the source: active = GI50 up to about 1.1 µM and inactive = higher.

Columns and labels:
Assay in all cases: NCI anticancer screen, dose series, 48 h
SNB-75 = tested on: SNB-75
OVCAR-4 = tested on: OVCAR-4
KM12 = tested on: KM12
COLO 205 = tested on: COLO 205
SN12C = tested on: SN12C
LOX IMVI = tested on: LOX IMVI
MOLT-4 = tested on: MOLT-4
SNB-19 = tested on: SNB-19
SW-620 = tested on: SW-620
NCI-H23 = tested on: NCI-H23
UACC-62 = tested on: UACC-62
IGROV-1 = tested on: IGROV-1
LXFL 529 = tested on: LXFL 529
Malme-3M = tested on: Malme-3M
U-251 = tested on: U-251
M19-MEL = tested on: M19-MEL
NCI-H460 = tested on: NCI-H460
NCI-H522 = tested on: NCI-H522
XF498 = tested on: XF498
SNB-78 = tested on: SNB-78
RXF 393 = tested on: RXF 393
NCI-H226 = tested on: NCI-H226
UACC-257 = tested on: UACC-257
RPMI-8226 = tested on: RPMI-8226
CAKI-1 = tested on: CAKI-1
SR = tested on: SR
SK-MEL-2 = tested on: SK-MEL-2
HOP-62 = tested on: HOP-62
HCT-116 = tested on: HCT-116
TK-10 = tested on: TK-10
A549 = tested on: A549
UO-31 = tested on: UO-31
KM-20L2 = tested on: KM-20L2
786-0 = tested on: 786-0
SK-MEL-5 = tested on: SK-MEL-5
A498 = tested on: A498
HCC 2998 = tested on: HCC 2998
OVCAR-3 = tested on: OVCAR-3
OVCAR-5 = tested on: OVCAR-5
SF-268 = tested on: SF-268
HOP-92 = tested on: HOP-92
OVCAR-8 = tested on: OVCAR-8
HT-29 = tested on: HT-29
EKVX = tested on: EKVX
HL-60 = tested on: HL-60
HOP-18 = tested on: HOP-18
SF-539 = tested on: SF-539
DU-145 = tested on: DU-145
M14 = tested on: M14
DLD-1 = tested on: DLD-1
SK-MEL-28 = tested on: SK-MEL-28
RXF 631 = tested on: RXF 631
CCRF-CEM = tested on: CCRF-CEM
K562 = tested on: K562
SF-295 = tested on: SF-295
HCT-15 = tested on: HCT-15
SK-OV-3 = tested on: SK-OV-3
ACHN = tested on: ACHN

In the case of `CC(=O)OC[C@@H](COC(=O)/C=C/c1ccc(O)cc1)OC1OC(CO)C(O)C(O)C1O` (stereo not given in full), the GI50 (SNB-75) is reported as > 100 µM (inactive), the GI50 (OVCAR-4) is reported as > 100 µM (inactive) and the GI50 (KM12) is reported as > 100 µM (inactive). The GI50 (COLO 205) was > 100 µM (inactive), the GI50 (SN12C) was > 100 µM (inactive) and the GI50 (LOX IMVI) was > 100 µM (inactive). The GI50 (MOLT-4) was > 100 µM (inactive), the GI50 (SNB-19) was > 100 µM (inactive) and the GI50 (SW-620) was > 100 µM (inactive). For the same compound, the GI50 (NCI-H23) was > 100 µM (inactive), the GI50 (UACC-62) was > 100 µM (inactive) and the GI50 (IGROV-1) was > 100 µM (inactive). The GI50 (LXFL 529) was > 100 µM (inactive), the GI50 (Malme-3M) was > 100 µM (inactive) and the GI50 (U-251) was > 100 µM (inactive). For the same compound, the GI50 (M19-MEL) was > 100 µM (inactive), the GI50 (NCI-H460) was > 100 µM (inactive) and the GI50 (NCI-H522) was > 100 µM (inactive). For the same compound, the GI50 (XF498) was > 100 µM (inactive), the GI50 (SNB-78) was > 100 µM (inactive) and the GI50 (RXF 393) was > 100 µM (inactive). For the same compound, the GI50 (NCI-H226) was > 100 µM (inactive), the GI50 (UACC-257) was > 100 µM (inactive) and the GI50 (RPMI-8226) was > 100 µM (inactive). The GI50 (CAKI-1) was > 100 µM (inactive), the GI50 (SR) was > 100 µM (inactive) and the GI50 (SK-MEL-2) was > 100 µM (inactive). The GI50 (HOP-62) was > 100 µM (inactive), the GI50 (HCT-116) was > 100 µM (inactive) and the GI50 (TK-10) was > 100 µM (inactive). The GI50 (A549) was > 100 µM (inactive), the GI50 (UO-31) was > 100 µM (inactive) and the GI50 (KM-20L2) was > 100 µM (inactive). For the same compound, the GI50 (786-0) was > 100 µM (inactive), the GI50 (SK-MEL-5) was > 100 µM (inactive) and the GI50 (A498) was > 100 µM (inactive). The GI50 (HCC 2998) was > 100 µM (inactive), the GI50 (OVCAR-3) was > 100 µM (inactive) and the GI50 (OVCAR-5) was > 100 µM (inactive). For the same compound, the GI50 (SF-268) was > 75.5 µM (inactive), the GI50 (HOP-92) was > 100 µM (inactive) and the GI50 (OVCAR-8) was > 100 µM (inactive). The GI50 (HT-29) was > 100 µM (inactive), the GI50 (EKVX) was > 100 µM (inactive) and the GI50 (HL-60) was > 100 µM (inactive). For the same compound, the GI50 (HOP-18) was > 100 µM (inactive), the GI50 (SF-539) was > 100 µM (inactive) and the GI50 (DU-145) was > 100 µM (inactive). The GI50 (M14) was > 100 µM (inactive), the GI50 (DLD-1) was > 100 µM (inactive) and the GI50 (SK-MEL-28) was > 100 µM (inactive). For the same compound, the GI50 (RXF 631) was > 100 µM (inactive), the GI50 (CCRF-CEM) was > 100 µM (inactive) and the GI50 (K562) was > 100 µM (inactive). The GI50 (SF-295) was > 100 µM (inactive), the GI50 (HCT-15) was > 100 µM and the GI50 (SK-OV-3) was > 100 µM (inactive). The GI50 (ACHN) was > 100 µM (inactive).
For `O=[N+]([O-])c1ccc(-c2noc(-c3ccccc3)c2C2=NCCN2)cc1`, the GI50 (SNB-75) was 68.5 µM (inactive), the GI50 (OVCAR-4) was 77.6 µM (inactive) and the GI50 (KM12) was > 100 µM (inactive). For the same compound, the GI50 (COLO 205) was 45.5 µM (inactive), the GI50 (SN12C) was > 100 µM (inactive) and the GI50 (LOX IMVI) was 71 µM (inactive). For the same compound, the GI50 (MOLT-4) was > 100 µM (inactive), the GI50 (SNB-19) was 53.2 µM (inactive) and the GI50 (SW-620) was > 100 µM (inactive). For the same compound, the GI50 (UACC-62) was > 100 µM (inactive), the GI50 (IGROV-1) was > 100 µM (inactive) and the GI50 (LXFL 529) was > 100 µM (inactive). The GI50 (Malme-3M) was > 100 µM (inactive), the GI50 (U-251) was 84.5 µM (inactive) and the GI50 (M19-MEL) was > 100 µM (inactive). The GI50 (NCI-H460) was > 100 µM (inactive), the GI50 (NCI-H522) was 20.5 µM (inactive) and the GI50 (XF498) was 70.6 µM (inactive). The GI50 (SNB-78) was 39.2 µM (inactive), the GI50 (RXF 393) was 38.6 µM (inactive) and the GI50 (NCI-H226) was 75.2 µM (inactive). For the same compound, the GI50 (UACC-257) was 41.2 µM (inactive), the GI50 (RPMI-8226) was > 100 µM (inactive) and the GI50 (CAKI-1) was 40.3 µM (inactive). For the same compound, the GI50 (SR) was 81.8 µM (inactive), the GI50 (SK-MEL-2) was > 100 µM (inactive) and the GI50 (HOP-62) was 29.9 µM (inactive). For the same compound, the GI50 (HCT-116) was 30.1 µM (inactive), the GI50 (A549) was > 100 µM (inactive) and the GI50 (UO-31) was 24.9 µM (inactive). The GI50 (KM-20L2) was 40.5 µM (inactive), the GI50 (786-0) was 54 µM (inactive) and the GI50 (SK-MEL-5) was 12.9 µM (inactive). For the same compound, the GI50 (HCC 2998) was > 100 µM (inactive), the GI50 (OVCAR-3) was 28.6 µM (inactive) and the GI50 (OVCAR-5) was > 100 µM (inactive). For the same compound, the GI50 (SF-268) was 63.2 µM (inactive), the GI50 (OVCAR-8) was > 100 µM (inactive) and the GI50 (HT-29) was 52.1 µM (inactive). For the same compound, the GI50 (EKVX) was > 100 µM (inactive), the GI50 (HL-60) was 55.3 µM (inactive) and the GI50 (HOP-18) was 21.1 µM (inactive). For the same compound, the GI50 (SF-539) was 42.7 µM (inactive), the GI50 (M14) was 87.9 µM (inactive) and the GI50 (DLD-1) was > 100 µM (inactive). For the same compound, the GI50 (SK-MEL-28) was > 100 µM (inactive), the GI50 (RXF 631) was 60.3 µM (inactive) and the GI50 (CCRF-CEM) was > 100 µM (inactive). The GI50 (K562) was > 100 µM (inactive), the GI50 (SF-295) was 44.7 µM (inactive) and the GI50 (HCT-15) was > 100 µM. For the same compound, the GI50 (ACHN) was > 100 µM (inactive).
